Numbers after ± are expanded uncertainties.
Tests used:
[1] = mn = molality of the nth substance listed, in mol/kg; settings: 101 kPa, Liquid; for viscosity: Falling or rolling sphere viscometry; for speed of sound: Frequency=3 MHz, Single path-length method; for mass density: Vibrating tube method
[2] = 101 kPa, Liquid, Falling or rolling sphere viscometry

NCC(=O)O [2-aminoacetic acid] + O
[1], m1 = 0.06
Settings	mass density [kg/m3]	speed of sound [m/s]	viscosity [mPa·s]
293.15 K	1000.19 ± 0.13	1485.8 ± 1.1	1.012 ± 0.021
298.15 K	999.024 ± 0.11	1499.6 ± 1	0.908 ± 0.021
303.15 K	997.613 ± 0.11	1511.8 ± 1	0.811 ± 0.021
308.15 K	995.985 ± 0.11	1522.4 ± 1	0.733 ± 0.021
313.15 K	994.125 ± 0.13	1531.4 ± 1.1	0.666 ± 0.021

O [water]
[2]
Settings	viscosity [mPa·s]
293.15 K	1.005 ± 0.021
298.15 K	0.894 ± 0.021
303.15 K	0.801 ± 0.021
308.15 K	0.723 ± 0.021
313.15 K	0.656 ± 0.021

O [water] + C[n+]1ccn(CCCCCn2cc[n+](C)c2)c1.[Br-].[Br-]
[1], m2 = 0
Settings	speed of sound [m/s]	viscosity [mPa·s]
293.15 K	–	1.005 ± 0.021
298.15 K	–	0.894 ± 0.021
303.15 K	–	0.801 ± 0.021
308.15 K	–	0.723 ± 0.021
313.15 K	1529.2 ± 1	0.656 ± 0.021

O [water] + C[n+]1ccn(CCCCn2cc[n+](C)c2)c1.[Br-].[Br-]
[1], m2 = 0
Settings	speed of sound [m/s]	viscosity [mPa·s]
293.15 K	–	1.005 ± 0.021
298.15 K	–	0.894 ± 0.021
303.15 K	–	0.801 ± 0.021
308.15 K	–	0.723 ± 0.021
313.15 K	1529.2 ± 1	0.656 ± 0.021

O [water] + C[n+]1ccn(CCCn2cc[n+](C)c2)c1.[Br-].[Br-]
[1], m2 = 0
Settings	speed of sound [m/s]	viscosity [mPa·s]
293.15 K	–	1.005 ± 0.021
298.15 K	–	0.894 ± 0.021
303.15 K	–	0.801 ± 0.021
308.15 K	–	0.723 ± 0.021
313.15 K	1529.2 ± 1	0.656 ± 0.021
